Experimental data as given in publication PMC10296061, “Inhibition of the Mitochondrial Carnitine/Acylcarnitine Carrier by Itaconate through Irreversible Binding to Cysteine 136: Possible Pathophysiological Implications” (Biomolecules, 2023).
Where a chain is given by its changes, count along the chain named.

Assays:
Format in all cases: biochemical
CAC K135A mutant = target: T1, CAC K135A mutant (Rattus norvegicus, UniProt P97521, K135A); experiment: Transport assay in proteoliposomes, CAC mutant K135A; settings: read-out: IC50 for itaconate inhibition
T1 construct: made in house; host or cells: E. coli C0214
T1 sequence (P97521 1-301 K135A): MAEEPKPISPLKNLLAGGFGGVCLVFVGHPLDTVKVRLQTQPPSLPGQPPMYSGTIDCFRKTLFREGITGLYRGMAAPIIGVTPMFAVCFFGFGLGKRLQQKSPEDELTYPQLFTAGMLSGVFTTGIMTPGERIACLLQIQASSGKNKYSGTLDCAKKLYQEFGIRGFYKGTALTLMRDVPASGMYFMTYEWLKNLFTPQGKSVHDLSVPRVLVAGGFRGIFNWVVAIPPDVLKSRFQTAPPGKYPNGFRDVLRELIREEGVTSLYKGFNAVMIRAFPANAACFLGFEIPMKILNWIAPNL
Experimental: (§1) As previously described, the pMW7-WTratCAC recombinant plasmid was used for over-expressing the rat CAC [22]. The overlap extension method was used to introduce the mutations; in the main time, NdeI and HindIII restriction sites were also added using appropriate primers. The PCR products were purified by the QIAEX II Gel Extraction Kit (QIAGEN) and digested with NdeI and HindIII and then ligated into the pMW7. All mutations were verified by DNA sequencing. The resulting plasmid constructs were transformed into E. coli C0214. Overexpression, inclusion body fraction preparation, and purification of the CAC proteins were performed as previously described. […]
(§2) To test the transport activity of the CAC, 550 μL of proteoliposomes was passed through a Sephadex G-75 column to remove the external substrate. […] Transport rates were measured in 10 min, i.e., within the initial linear range of the time course, at 25 °C. After terminating the transport reaction, the external substrate was removed by chromatography on the Sephadex G-75 column, and the intraliposomal radioactivity was measured. […]
Figure 9 Dose–response analysis of inhibition by itaconate of WT protein (○) and the K135A (●) mutant was performed by measuring the transport activity with or without itaconate treatment. […] The data are expressed as a percent of the own controls and are means ± SD from three independent experiments.

recombinant ORC (hORC1) = target: T2, recombinant ORC (hORC1) (Homo sapiens, UniProt Q9Y619); experiment: [3H]ornithine transport in proteoliposomes reconstituted with recombinant ORC; settings: read-out: IC50 for itaconate inhibition
T2 construct: encodes a full-length hORC1 protein with a His6 tag before the termination codon; His6 (C); made in house; host or cells: E. coli C0214
T2 sequence (Q9Y619 1-301): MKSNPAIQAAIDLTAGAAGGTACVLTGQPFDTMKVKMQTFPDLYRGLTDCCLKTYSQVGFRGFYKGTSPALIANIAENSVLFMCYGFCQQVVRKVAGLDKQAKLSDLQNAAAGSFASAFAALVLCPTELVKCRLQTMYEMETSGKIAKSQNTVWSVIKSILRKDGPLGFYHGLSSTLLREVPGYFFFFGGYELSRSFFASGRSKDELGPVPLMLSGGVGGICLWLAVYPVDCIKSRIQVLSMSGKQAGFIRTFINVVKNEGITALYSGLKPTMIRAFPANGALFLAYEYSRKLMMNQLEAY
From the text: The 903 bp cDNA coding for the hORC1Wild Type (WT) protein was amplified from the Mega Man Human Transcriptome Library with the forward and reverse primers 5′-[…]-3′ and 5′-[…]-3′, containing the NdeI and HindIII sites, respectively. The amplified cDNA was then cloned in the NdeI/HindIII sites of the pET-21a(+) expression vector. The resulting recombinant plasmid, defined as pET-21a(+)-hORC1, encodes a full-length hORC1 protein with a His6 tag before the termination codon. […]
as §2
Figure 3 Identification of residue responsible for itaconate inhibition. […] Transport activity of the WT (○), C136A (●), C155A (Δ), C23V/C58V/C89S/C155V/C283S (▲), and C23V/C58V/C89S/C136V/C155V/C283S (□) was measured by adding 0.1 mM [^3H]carnitine after treatment by itaconate at the indicated concentrations. […] Transport activity was measured by adding 0.1 [^3H]ornithine, respectively, as described in Materials and Methods. […]

CAC C136A mutant = target: T3, CAC C136A mutant (Rattus norvegicus, UniProt P97521, C136A); experiment: Transport assay in proteoliposomes, CAC mutant C136A; settings: mutant lacking C136; read-out: IC50 for itaconate inhibition
T3 construct: made in house; host or cells: E. coli C0214
T3 sequence (P97521 1-301 C136A): T1 sequence (P97521 1-301 K135A) with A135K, C136A
Experimental: as §1, §2
Figure 3 Identification of residue responsible for itaconate inhibition. […] Transport activity of the WT (○), C136A (●), C155A (Δ), C23V/C58V/C89S/C155V/C283S (▲), and C23V/C58V/C89S/C136V/C155V/C283S (□) was measured by adding 0.1 mM [^3H]carnitine after treatment by itaconate at the indicated concentrations. […]

With `C=C(CC(=O)O)C(=O)O` [itaconate] the IC50 (CAC K135A mutant) was 16 ± 2.6 mM, the IC50 (recombinant ORC (hORC1)) was 44 ± 6 mM and the IC50 (CAC C136A mutant) was 15 ± 2.1 mM.
